PubChem BioAssay (NCI)
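Following 48 hours of exposure in 96-well plates, responses at five concentrations were used to interpolate endpoints linearly. GI50 is the concentration that inhibits growth by half. Definition used: TGI = concentration required for complete inhibition of growth.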

Legend:
Experiment in all cases: inhibition of tumour cell growth, NCI panel, 48 h
RXF 393 renal = system: RXF 393 renal
SF-268 CNS = system: SF-268 CNS
786-0 renal = system: 786-0 renal
KM12 colon = system: KM12 colon
SK-OV-3 ovarian = system: SK-OV-3 ovarian
HCT-15 colon = system: HCT-15 colon
HS 578T breast = system: HS 578T breast
MDA-MB-231 breast = system: MDA-MB-231 breast
SK-MEL-2 melanoma = system: SK-MEL-2 melanoma
MDA-MB-435 = system: MDA-MB-435
CAKI-1 renal = system: CAKI-1 renal
COLO 205 colon = system: COLO 205 colon
NCI-H460 lung = system: NCI-H460 lung
OVCAR-3 ovarian = system: OVCAR-3 ovarian
UACC-62 melanoma = system: UACC-62 melanoma
T-47D breast = system: T-47D breast
MALME-3M melanoma = system: MALME-3M melanoma
HOP-62 NSCLC = system: HOP-62 NSCLC
SK-MEL-5 melanoma = system: SK-MEL-5 melanoma
HL-60(TB) leukemia = system: HL-60(TB) leukemia
A498 renal = system: A498 renal
SF-295 CNS = system: SF-295 CNS
U251 CNS = system: U251 CNS
ACHN renal = system: ACHN renal
HOP-92 NSCLC = system: HOP-92 NSCLC
CCRF-CEM leukemia = system: CCRF-CEM leukemia
UACC-257 melanoma = system: UACC-257 melanoma
SNB-19 CNS = system: SNB-19 CNS
M14 melanoma = system: M14 melanoma
BT-549 breast = system: BT-549 breast
NCI-H522 lung = system: NCI-H522 lung
LOX IMVI melanoma = system: LOX IMVI melanoma
TK-10 renal = system: TK-10 renal
NCI-H226 lung = system: NCI-H226 lung
SW-620 colon = system: SW-620 colon
PC-3 prostate = system: PC-3 prostate
DU-145 prostate = system: DU-145 prostate
HT29 colon = system: HT29 colon
HCC-2998 colon = system: HCC-2998 colon
NCI-H23 lung = system: NCI-H23 lung
UO-31 renal = system: UO-31 renal
OVCAR-8 ovarian = system: OVCAR-8 ovarian
IGROV1 ovarian = system: IGROV1 ovarian
SNB-75 CNS = system: SNB-75 CNS
HCT-116 colon = system: HCT-116 colon
SF-539 CNS = system: SF-539 CNS
SK-MEL-28 melanoma = system: SK-MEL-28 melanoma
SN12C renal = system: SN12C renal
OVCAR-5 ovarian = system: OVCAR-5 ovarian
EKVX NSCLC = system: EKVX NSCLC
NCI/ADR-RES ovarian = system: NCI/ADR-RES ovarian
A549 NSCLC = system: A549 NSCLC
OVCAR-4 ovarian = system: OVCAR-4 ovarian

## CCNCCNc1cc(-c2cccc(C(F)(F)F)c2)c(C#N)c2nc3ccccc3n12
RXF 393 renal
  GI50: 1490 nM
  TGI: 3100 nM
SF-268 CNS
  GI50: 1570 nM
  TGI: 3120 nM
786-0 renal
  GI50: 1020 nM
  TGI: 2330 nM
KM12 colon
  GI50: 1630 nM
  TGI: 3130 nM
SK-OV-3 ovarian
  GI50: 2000 nM
  TGI: 3490 nM
HCT-15 colon
  GI50: 708 nM
  TGI: 2120 nM
HS 578T breast
  GI50: 1840 nM
  TGI: 3880 nM
MDA-MB-231 breast
  GI50: 1670 nM
  TGI: 3290 nM
SK-MEL-2 melanoma
  GI50: 1870 nM
  TGI: 3590 nM
MDA-MB-435
  GI50: 1520 nM
  TGI: 2880 nM
CAKI-1 renal
  GI50: 1540 nM
  TGI: 3000 nM
COLO 205 colon
  GI50: 557 nM
  TGI: 1990 nM
NCI-H460 lung
  GI50: 457 nM
  TGI: 1810 nM
OVCAR-3 ovarian
  GI50: 1260 nM
  TGI: 2620 nM
UACC-62 melanoma
  GI50: 1690 nM
  TGI: 3200 nM
T-47D breast
  GI50: 2200 nM
  TGI: 4210 nM
MALME-3M melanoma
  GI50: 1640 nM
  TGI: 3290 nM
HOP-62 NSCLC
  GI50: 2130 nM
  TGI: 3800 nM
SK-MEL-5 melanoma
  GI50: 1760 nM
  TGI: 3160 nM
HL-60(TB) leukemia
  GI50: 2230 nM
  TGI: 4210 nM
A498 renal
  GI50: 1640 nM
  TGI: 3080 nM
SF-295 CNS
  GI50: 1790 nM
  TGI: 3390 nM
U251 CNS
  GI50: 1670 nM
  TGI: 3080 nM
ACHN renal
  GI50: 1320 nM
  TGI: 2900 nM
HOP-92 NSCLC
  GI50: 1690 nM
  TGI: 3540 nM
CCRF-CEM leukemia
  GI50: 290 nM
  TGI: 798 nM
UACC-257 melanoma
  GI50: 1810 nM
  TGI: 3260 nM
SNB-19 CNS
  GI50: 1990 nM
  TGI: 3970 nM
M14 melanoma
  GI50: 1710 nM
  TGI: 3250 nM
BT-549 breast
  GI50: 2060 nM
  TGI: 3750 nM
NCI-H522 lung
  GI50: 1860 nM
  TGI: 3460 nM
LOX IMVI melanoma
  GI50: 299 nM
  TGI: 1070 nM
TK-10 renal
  GI50: 2140 nM
  TGI: 3690 nM
NCI-H226 lung
  GI50: 1640 nM
  TGI: 3640 nM
SW-620 colon
  GI50: 390 nM
  TGI: 1510 nM
PC-3 prostate
  GI50: 1830 nM
  TGI: 3540 nM
DU-145 prostate
  GI50: 1470 nM
  TGI: 2830 nM
HT29 colon
  GI50: 1240 nM
  TGI: 2650 nM
HCC-2998 colon
  GI50: 1650 nM
  TGI: 3130 nM
NCI-H23 lung
  GI50: 1750 nM
  TGI: 3530 nM
UO-31 renal
  GI50: 603 nM
  TGI: 2070 nM
OVCAR-8 ovarian
  GI50: 1690 nM
  TGI: 3230 nM
IGROV1 ovarian
  GI50: 1720 nM
  TGI: 3490 nM
SNB-75 CNS
  GI50: 1500 nM
  TGI: 2920 nM
HCT-116 colon
  GI50: 239 nM
  TGI: 515 nM
SF-539 CNS
  GI50: 1700 nM
  TGI: 3230 nM
SK-MEL-28 melanoma
  GI50: 1860 nM
  TGI: 3630 nM
SN12C renal
  GI50: 1740 nM
  TGI: 3370 nM
OVCAR-5 ovarian
  GI50: 1830 nM
  TGI: 3710 nM
EKVX NSCLC
  GI50: 1750 nM
  TGI: 3450 nM
NCI/ADR-RES ovarian
  GI50: 1810 nM
  TGI: 3860 nM
A549 NSCLC
  GI50: 1480 nM
  TGI: 3000 nM
OVCAR-4 ovarian
  GI50: 1600 nM
  TGI: 3240 nM
